Results taken from patent US4175081A, “5-Substituted thiadiazole ureas” (priority 1977, dated 1979).

Tests used:
Crabgrass (CG) [1] = assay: Pre-emergence herbicide test; format: in vivo, Digitaria sanquinalis; conditions: Digitaria sanguinalis, pre-emergence, 336 h, two weeks after treatment; for pest or weed control at 8966.8 g/ha: 8 lb/acre
Method in brief: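 Crabgrass (Digitaria sanquinalis) was surface seeded in 3' plastic pots of potting soil, covered with screened soil, and watered by sub-irrigation in greenhouse trays. Pots were seeded one day before spraying in a hood with a moving belt and fixed nozzle. Plants stayed in the greenhouse on sub-irrigation, and pre-emergence control was rated visually two weeks after treatment.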

Cotton (CT) [2] = assay: Pre-emergence herbicide test; format: in vivo, Gossypium hirsutum var. DPL smooth leaf; conditions: Gossypium hirsutum, 336 h, two weeks after treatment; for pest or weed control at 8966.8 g/ha: 8 lb/acre
Method in brief: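 Visual injury/control ratings were taken at two weeks post-spray. Pots seeded a day earlier received compound pre-emergence at 8 lbs/acre, or 4 lbs/acre, in a 38 gallon/acre spray volume, and were then held in the greenhouse, watered only from below.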

Amaranth pigweed (PW) [3] = assay: Post-emergence herbicide test; format: in vivo, Amaranthus retroflexus; conditions: 336 h, two weeks after treatment; for pest or weed control at 8966.8 g/ha: 8 lb/acre
Method in brief: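 Visual injury or control ratings were made two weeks after spraying, with greenhouse watering by sub-irrigation only. Treatment was post-emergence, when pigweed seedlings had 1 or 2 true leaves, at 8 lbs active compound per acre (4 lbs/acre formulations also made) in a 38 gallons-per-acre spray volume.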

Turnip (TP) [4] = assay: Pre-emergence herbicide test; format: in vivo, Brassica sp.; conditions: Brassica rapa, pre-emergence, 336 h, two weeks after treatment; for pest or weed control at 8966.8 g/ha: 8 lb/acre
Method in brief: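 In this pre-emergence greenhouse test, turnip was seeded on the surface of potting soil in 3' plastic pots, lightly covered with screened soil, and watered from below. One day later the pots were sprayed in a belt-fed spray hood. Watering continued only by sub-irrigation, and percent control was visually scored two weeks after treatment.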

Amaranth pigweed (PW) [5] = assay: Pre-emergence herbicide test; format: in vivo, Amaranthus retroflexus; conditions: 336 h, two weeks after treatment; for pest or weed control at 8966.8 g/ha: 8 lb/acre
Method in brief: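 Visual injury or control ratings were made at two weeks on pre-emergence pots, sub-irrigated in the greenhouse. Seeds were sown a day before a hood spray delivering 8 lbs/acre (or 4 lbs/acre) of compound in 38 gallons per acre.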

Johnson grass (JG) [6] = assay: Pre-emergence herbicide test; format: in vivo, Sorgum helepense; conditions: Sorghum halepense, 336 h, two weeks after treatment; for pest or weed control at 8966.8 g/ha: 8 lb/acre
Method in brief: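 Visual injury or control rating two weeks post-treatment, after pre-emergence spray of 8 or 4 lbs active per acre (38 gal/acre) onto pots sown the previous day. Greenhouse watering by sub-irrigation only.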

Cotton (CT) [7] = assay: Post-emergence herbicide test; format: in vivo, Gossypium hirsutum var. DPL smooth leaf; conditions: Gossypium hirsutum, post-emergence, 336 h, two weeks after treatment; for pest or weed control at 8966.8 g/ha: 8 lb/acre
Method in brief: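 This greenhouse post-emergence test measured how well spray treatments controlled cotton. Seedlings of Gossypium hirsutum var. DPL smooth leaf, with expanded cotyledons and a first true leaf 1' in length, were sprayed with 50 ml formulations in a belt-fed spray hood. They were then returned to the greenhouse and watered only by sub-irrigation. Injury was scored visually as % control after two weeks.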

Barnyard grass (BG) [8] = assay: Pre-emergence herbicide test; format: in vivo; conditions: Echinochloa crus-galli, 336 h, two weeks after treatment; for pest or weed control at 8966.8 g/ha: 8 lb/acre
Method in brief: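 Greenhouse pre-emergence spray test: pots seeded one day before treatment received compound at rates of 8 or 4 lb/acre (38 gal/acre). Visual injury/control scores for Echinochloa crus-galli taken at two weeks, with watering by sub-irrigation only.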

Barnyard grass (BG) [9] = assay: Post-emergence herbicide test; format: in vivo; conditions: Echinochloa crus-galli, 336 h, two weeks after treatment; for pest or weed control at 8966.8 g/ha: 8 lb/acre
Method in brief: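 Greenhouse pot-grown barnyard grass seedlings sprayed post-emergence at 8 lbs active compound per acre (some at 4 lbs/acre) in 38 gallons per acre, then sub-irrigated. Injury or control rated visually two weeks after treatment.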

Bean (BN) [10] = assay: Post-emergence herbicide test; format: in vivo, Phaseolus vulgaris var. Black Valentine; conditions: Phaseolus vulgaris, post-emergence, 336 h, two weeks after treatment; for pest or weed control at 8966.8 g/ha: 8 lb/acre
Method in brief: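 Bean seedlings (Phaseolus vulgaris var. Black Valentine) were grown in potting soil in 3' pots until the primary leaves expanded. They were then sprayed under a hood with a removable belt and fixed nozzle, using 50 ml formulations. Afterward they were returned to the greenhouse and watered only by sub-irrigation. Percent control was judged visually two weeks after treatment.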

[11] = tested on: Yellow foxtail grass (YF); assay: Post-emergence herbicide test; format: in vivo, Setaria glauca; conditions: Setaria, 336 h, two weeks after treatment; for pest or weed control at 8966.8 g/ha: 8 lb/acre
Method: (§1) Yellow foxtail grass (YF)--Setaria glauca
(§2) All crop and weed species were planted individually in 3' plastic pots containing potting soil. Four seeds each of corn, cotton, and snapbeans were seeded to a depth equal to the diameter of the seed. All other species were surface seeded and sprinkled with screened soil in an amount sufficient to cover the seed. Immediately after planting, all pots were watered by sub-irrigation in greenhouse trays. Pots for the pre-emergence phase were seeded one day before treatment.
Planting dates for the post-emergence phase were varied so that all seedlings would reach the desired stage of development simultaneously. The proper stage of seedling development for treatment in the post-emergence phase is as follows:
(§3) Compounds were tested at rates of application equivalent to 8 lbs. of actual compound per acre in a spray volume of 38 gallons per acre. Spray hood constants required to deliver the above volume are as follows:
(§4) Formulations for spray applications were prepared in 50 ml volumes with the following three components:
(§5) Formulations for the 4 lbs/acre rate were prepared by adjusting the amount of active ingredient accordingly.
(§6) Spray applications were made in a hood containing a removable belt and fixed spray nozzle. For passage through the spray hood, one pot of each specie (pre-emergence phase) was placed on the rear half of the flat. Treatments were removed to the greenhouse after spraying. Watering during the observation period was done only by sub-irrigation.
(§7) Two weeks after treatment, pre- and post-emergence injury or control was visually rated, and the results were as shown in the following tables. Pre-emergence data are provided in TABLE III and post-emergence data are provided in TABLE IV, for compounds having the formula illustrated in TABLE I. Correspondingly, pre-emergence and post-emergence data, respectively, are set forth in TABLES V AND VI, for compounds having the formula illustrated in TABLE II.

Turnip (TP) [12] = assay: Post-emergence herbicide test; format: in vivo, Brassica sp.; conditions: Brassica rapa, post-emergence, 336 h, two weeks after treatment; for pest or weed control at 8966.8 g/ha: 8 lb/acre
Method in brief: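 A greenhouse post-emergence herbicide test on turnip. Seeds were sown on the surface of potting soil in 3' plastic pots, lightly covered with screened soil and watered from below. Planting was timed so seedlings had 1 or 2 true leaves above the cotyledons at spraying, done in a hood with a fixed nozzle. Control or injury was scored by eye after two weeks.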

Bean (BN) [13] = assay: Pre-emergence herbicide test; format: in vivo, Phaseolus vulgaris var. Black Valentine; conditions: Phaseolus vulgaris, 336 h, two weeks after treatment; for pest or weed control at 8966.8 g/ha: 8 lb/acre
Method in brief: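 Visual injury/control ratings were taken two weeks post-spray on sub-irrigated Phaseolus vulgaris var. Black Valentine. Pots were sown a day before treatment. Pre-emergence spray delivered 8 lbs actual compound per acre (or 4 lbs/acre) at 38 gallons per acre.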

Crabgrass (CG) [14] = assay: Post-emergence herbicide test; format: in vivo, Digitaria sanquinalis; conditions: Digitaria sanguinalis, post-emergence, 336 h, two weeks after treatment; for pest or weed control at 8966.8 g/ha: 8 lb/acre
Method in brief: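 Crabgrass (Digitaria sanquinalis) was surface seeded individually in 3' plastic pots of potting soil, covered with screened soil, and watered by sub-irrigation in greenhouse trays. Planting was staggered so seedlings reached the target stage together. Post-emergence sprays were applied in a hood with a removable belt and fixed nozzle, and control was visually rated two weeks after treatment.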

Corn (CN) [15] = assay: Pre-emergence herbicide test; format: in vivo; conditions: Zea mays, 336 h, two weeks after treatment; for pest or weed control at 8966.8 g/ha: 8 lb/acre
Method in brief: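 Visual injury/control ratings were made 2 weeks post-spray on corn pots seeded (4 seeds, seed-diameter depth) the day before treatment. Application was a belt-hood spray of 38 gal/acre delivering 8 lbs active per acre, with a 4 lbs/acre rate also formulated. Watering was by sub-irrigation throughout.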

[16] = tested on: Yellow foxtail grass (YF); assay: Pre-emergence herbicide test; format: in vivo, Setaria glauca; conditions: Setaria, 336 h, two weeks after treatment; for pest or weed control at 8966.8 g/ha: 8 lb/acre
Method: as §1, §2, §3, §4, §5, §6, §7

Johnson grass (JG) [17] = assay: Post-emergence herbicide test; format: in vivo, Sorgum helepense; conditions: Sorghum halepense, 336 h, two weeks after treatment; for pest or weed control at 8966.8 g/ha: 8 lb/acre
Method in brief: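 Visual injury or control scores taken 2 weeks after a post-emergence spray of pot-grown plants. Application was 8 lbs/acre (or 4 lbs/acre) in 38 gal/acre. Plants were held in the greenhouse with sub-irrigation only.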

Corn (CN) [18] = assay: Post-emergence herbicide test; format: in vivo; conditions: Zea mays, 336 h, two weeks after treatment; for pest or weed control at 8966.8 g/ha: 8 lb/acre
Method in brief: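 Greenhouse seedlings grown in potting soil and sprayed post-emergence at 8 lbs compound/acre (formulations also made for 4 lbs/acre) in 38 gallons/acre spray volume. Watering by sub-irrigation only. Injury or control rated visually two weeks after treatment.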

Row | SMILES | pest or weed control at 8966.8 g/ha (Crabgrass (CG) [1]) | pest or weed control at 8966.8 g/ha (Cotton (CT) [2]) | pest or weed control at 8966.8 g/ha (Amaranth pigweed (PW) [3]) | pest or weed control at 8966.8 g/ha (Turnip (TP) [4]) | pest or weed control at 8966.8 g/ha (Amaranth pigweed (PW) [5]) | pest or weed control at 8966.8 g/ha (Johnson grass (JG) [6]) | pest or weed control at 8966.8 g/ha (Cotton (CT) [7]) | pest or weed control at 8966.8 g/ha (Barnyard grass (BG) [8]) | pest or weed control at 8966.8 g/ha (Barnyard grass (BG) [9]) | pest or weed control at 8966.8 g/ha [11] | pest or weed control at 8966.8 g/ha (Turnip (TP) [12]) | pest or weed control at 8966.8 g/ha (Bean (BN) [13]) | pest or weed control at 8966.8 g/ha (Crabgrass (CG) [14]) | pest or weed control at 8966.8 g/ha (Corn (CN) [15]) | pest or weed control at 8966.8 g/ha [16] | pest or weed control at 8966.8 g/ha (Johnson grass (JG) [17]) | pest or weed control at 8966.8 g/ha (Corn (CN) [18]) | pest or weed control at 8966.8 g/ha (Bean (BN) [10]) | other results
1 | CN(C)C(=O)N(C)c1nnc(C(F)(F)F)s1 [Example 4, 1,1,3-Trimethyl-3-[5-Trifluoromethyl-2-(1,3,4-Thiadiazolyl)] Urea] | – | – | – | – | – | – | – | – | – | – | – | – | – | – | – | – | – | – | pest or weed control at 4483.4 g/ha (Crabgrass (CG) [1]; 4 lb/acre): 100%; pest or weed control at 4483.4 g/ha (Cotton (CT) [2]; 4 lb/acre): 70%; pest or weed control at 4483.4 g/ha (Amaranth pigweed (PW) [3]; 4 lb/acre): 100%; pest or weed control at 4483.4 g/ha (Turnip (TP) [4]; 4 lb/acre): 100%; pest or weed control at 4483.4 g/ha (Amaranth pigweed (PW) [5]; 4 lb/acre): 100%; pest or weed control at 4483.4 g/ha (Johnson grass (JG) [6]; 4 lb/acre): 40%; pest or weed control at 4483.4 g/ha (Cotton (CT) [7]; 4 lb/acre): 100%; pest or weed control at 4483.4 g/ha (Barnyard grass (BG) [8]; 4 lb/acre): 90%; pest or weed control at 4483.4 g/ha (Barnyard grass (BG) [9]; 4 lb/acre): 60%; pest or weed control at 4483.4 g/ha (Bean (BN) [10]; 4 lb/acre): 100%; pest or weed control at 4483.4 g/ha ([11]; 4 lb/acre): 90%; pest or weed control at 4483.4 g/ha (Turnip (TP) [12]; 4 lb/acre): 100%; pest or weed control at 4483.4 g/ha (Bean (BN) [13]; 4 lb/acre): 90%; pest or weed control at 4483.4 g/ha (Crabgrass (CG) [14]; 4 lb/acre): 80%; pest or weed control at 4483.4 g/ha (Corn (CN) [15]; 4 lb/acre): 70%; pest or weed control at 4483.4 g/ha ([16]; 4 lb/acre): 80%; pest or weed control at 4483.4 g/ha (Johnson grass (JG) [17]; 4 lb/acre): 40%; pest or weed control at 4483.4 g/ha (Corn (CN) [18]; 4 lb/acre): 100%
2 | CNC(=O)Nc1nnc(OC)s1 [Example 24] | 10% | 10% | 90% | 10% | 60% | 10% | 70% | 10% | 20% | 20% | 60% | 60% | 30% | 30% | 10% | 20% | 20% | – | –
3 | CSc1nnc(NC(=O)NC(C)C)s1 [Example 30] | 20% | 10% | 50% | – | 10% | 10% | 70% | 10% | 20% | 20% | 40% | 50% | 20% | 10% | 10% | 20% | 20% | 100% | –
4 | CNC(=O)Nc1nnc(-c2ccccc2)s1 [Example 34] | 10% | 40% | 20% | 20% | – | 20% | 50% | 10% | 10% | 30% | 40% | 80% | 10% | 10% | 20% | 30% | 50% | 60% | –
5 | CNC(=O)Nc1nnc(-c2ccc(Cl)cc2)s1 [Example 71] | 0% | 90% | 20% | 0% | – | 0% | 0% | 20% | 20% | 30% | 20% | 50% | 20% | 0% | 0% | 20% | 0% | 50% | –
